Source: patent US9314536B2, “Compounds and methods for the treatment of EGFR positive diseases” (Bio-Thera Solutions, Ltd., Co., priority 2012, dated 2016)

How the values were obtained:
[1] = tested on: tubulin; test: HTS-Tubulin Polymerization Assay Kit, tubulin polymerization in vitro; type: biochemical; settings: 1 μM stock, 10 μL added to 100 μL 4 mg/ml tubulin, 37° C., 405 nm; compared with the PBS buffer
Protocol: The effect of 3AA-MDC, 206-3AA-MDC (206 is an anit-EGFR antibody containing a light chain with sequence shown in Seq ID 1 and a heavy chain with amino acid sequence shown in Seq ID 2, and it was prepared as described in example 7) and the metabolites (Cys-3AA-MDC and Lys-mcc-MDC) of prodrug antibody maytansinoid conjugates on the tubulin polymerization in vitro was assessed by HTS-Tubulin Polymerization Assay Kit (BK004P, Cytoskeleton, Inc., USA). According to the instruction of kit, pre-warm the 96-well plate to 37° C. for 30 min prior to starting the assay. At the same time, the spectrophotometer (SpectraMax, Molecular Devices, USA) was set as follow: wavelength, 405 nm; temperature, 37° C.; Kinetic, 31 cycles of 1 reading per minute. Make cold G-PEM buffer (990 μL General Tubulin Buffer+10 μL GTP Stock) and keep it on ice. Prepare 4 mg/mL tubulin, 1 μM L-3AA-MDC (N2′-deacetyl-N2′-(6-maleimido-1-oxo-hexyl)maytansine), 1 μM 206-3AA-MDC, 1 μM cys-3AA-MDC, 1 μM lys-mcc-MDC, 100 μM Paclitaxel, and 100 μM Nocodazole. Add 10 μL G-PEM, 3AA-MDC, 206-3AA-MDC, cys-3AA-MDC, lys-mcc-MDC, Paclitaxel, Nocodazole into the wells, and then add 100 μL 4 mg/ml tubulin to each well. Immediately place the plate into the spectrophotometer and start recording using the kinetic setup described above. […] Nocodazole, the tubulin polymerization inhibitor, was set as a negative control. […]

[2] = versus methotrexate, daunorubicin, and vincristine; cited from earlier work
[3] = tested on: human acute lymphoblastic leukemia line C.E.M.; settings: cited from earlier work

COc1cc2cc(c1Cl)N(C)C(=O)C[C@H](OC(=O)[C@H](C)N(C)C(=O)CCCCCN1C(=O)C=CC1=O)[C@]1(C)OC1[C@H](C)[C@@H]1C[C@@](O)(NC(=O)O1)[C@H](OC)/C=C/C=C(\C)C2 (stereo partly shown) [3AA-MDC, N2′-deacetyl-N2′-(6-maleimido-1-oxo-hexyl)-maytansine]
inhibition of tubulin polymerization [1]: more significantly inhibited the tubulin polymerization

COc1cc2cc(c1Cl)N(C)C(=O)C[C@H](OC(=O)[C@H](C)N(C)C(=O)CCSC1CC(=O)N(CC3CCC(C(=O)NCCCC[C@H](N)C(=O)O)CC3)C1=O)[C@]1(C)O[C@H]1[C@H](C)[C@@H]1C[C@@](O)(NC(=O)O1)[C@H](OC)/C=C/C=C(\C)C2 (stereo partly shown) [Lys-mcc-MDC]
inhibition of tubulin polymerization [1]: more significantly inhibited the tubulin polymerization

COc1cc2cc(c1Cl)N(C)C(=O)C[C@H](OC(=O)[C@H](C)N(C)C(C)=O)[C@]1(C)O[C@H]1[C@H](C)[C@@H]1C[C@@](O)(NC(=O)O1)[C@H](OC)/C=C/C=C(\C)C2 [Maytansine]
fold more cytotoxic than conventional chemotherapeutic agents [2]: 100- to 1000 fold
inhibitory concentration (as low as) [3]: 10^−7 mg/mL
